These results are taken from patent US20220202739A1, “ENDOCANNABINOID MIMETIC AND ANTI-INFLAMMATORY COMPOUND CONTAINING COMPOSITIONS, METHODS OF PREPARATION AND USES THEREOF” (priority 2019, published 2022).

Test [1] concerns TRPV1. Description: Gene expression custom microarray, human skin fibroblasts (Example 1): TRPV1. The format is cell-based. The conditions noted are these: 10 uM, 24 hr. From the text: Cell cultures: A human skin fibroblast cell culture (or cultures) was obtained through the Coriell Cell Repository from the National Institute on Aging Cell Repository (Camden, N.J.), or Promocell GmbH (Heidelberg, Germany). The initial culture was selected from the following cell lines: AG13066, AG11557, AG11796 or GM03651E. The cell lines were derived from donors as follows:
Experimental phase: When the appropriate quantity of cells had been grown, they were detached as described above, but at the final step were seeded into each well of one or more 6 well dishes. Each well received 2 ml of the cell suspension so they were seeded equally. The dishes were returned to the incubator until 85-95% confluency was reached.
It is at this stage that all wells were rinsed in PBS after aspirating the growth media. The compound(s) to be tested were previously mixed into a suitable solvent (e.g., DMSO or ethanol) that can be diluted to the desired concentration of test compound (10 μl) in the culture wells without exceeding maximum solvent concentrations and adversely effecting cell viability, and mixed with basal media. NOTE: Standard maximum levels of solvent are 0.1% for DMSO and 0.5% for ETOH. The concentration of each test compound is found in Tables 1 & 2.
Every 2 wells on the 6 well plate served as a biological replicate for the purposes of RNA isolation and genetic expression evaluations making each 6 well dish an n=3 for the test compound(s) contained in the media. Negative control plates (no test compound(s) and only basal media) were also generated. The plates were returned to the incubator for 24 hrs.
At the end of the 24 hr time period, the plates were removed from the incubator, the test media aspirated, and the cells rinsed with PBS. RNA isolation is performed using the BioRad Aurum Total RNA Mini Kit (Hercules, Calif.) per manufacturer's protocol; which is described, in brief, below: • Add 350 μl of lysis buffer to each well. Pipet multiple times to ensure thorough lysis. Add lysed cells to the collection tube. • Add 350 μl of 70% ETOH to the collection tube and mix thoroughly. • Pipet the generated lysate onto the spin column placed in a new 2 ml tube. Centrifuge for 30 sec between 8,000 and 10,000 g. • Place the spin column containing the now bound RNA, in a new 2 ml tube. Add 700 μl of low stringency wash solution to the spin column. Centrifuge for 30 sec between 8,000 and 10,000 g. […] Allow 1 minute for saturation of the membrane and then centrifuge for 2 minutes to complete the RNA elution. • Quantify the quantity of RNA and store at −20 C° until use (no more than 1 month) […]

The next test concerns IL1A. Briefly: Gene expression custom microarray, human skin keratinocytes (Example 2): IL1A. The following applies: 10 uM, 24 hr. In kind it is cell-based. As to the method: (§1) Cell cultures: A human skin keratinocyte cell culture (or cultures) is obtained through the ThermoFisher Scientific (Waltham, Mass.) or Promocell GmbH (Heidelberg, Germany). The initial culture was selected from one of the following, C055C, 3C0647, or
(§2) C12003. The cell lines were derived from donors as follows: C055C: Single donor adult 3C0647: Single donor adult, lightly pigmented C12003: Single donor adult
(§3) Culture media: Cells were grown in ready to use Keratinocyte Growth Medium 2 from Promocell GmbH (Heidelberg, Germany) containing basal media supplemented with Bovine Pituitary Extract 0.004 ml/ml, Epidermal Growth Factor (recombinant human) 0.125 ng/ml, Insulin (recombinant human) 5 μg/ml, Hydrocortisone 0.33 μg/ml, Epinephrine 0.39 μg/ml, Transferrin (recombinant human) 10 μg/ml, and CaCl2 0.06 mM. […] All cultures were incubated at 37° C. with 5% CO2 in a humidified chamber.
(§4) Experimental phase: The experimental phase was carried out in accordance with the protocol set forth in the experimental phase section of Example 1.
(§5) The genes tested: Tested genes were the same as tested in Example 1.
(§6) Performance of custom microarray: Performance of custom microarray was carried out in accordance with the protocol set forth in the performance of custom microarray section of Example 1. […]

In a further test the test system is PTGS1. Briefly: Gene expression custom microarray, human skin keratinocytes (Example 2): PTGS1. In kind it is cell-based. The following applies: 10 uM, 24 hr. As to the method:
as §1, §2, §3, §4, §5, §6

A further test has as its system TRPA1. Description: Gene expression custom microarray, human skin keratinocytes (Example 2): TRPA1. The format is cell-based. The conditions noted are these: 10 uM, 24 hr. The procedure:
as §1, §2, §3, §4, §5, §6

Another test relates to CNR2. The conditions noted are these: human skin keratinocytes, 10 uM, 24 hr. As to the method:
as §1, §2, §3, §4, §5, §6

For another test, the system named is CNR1. The following applies: human skin keratinocytes, 10 uM, 24 hr. As to the method:
as §1, §2, §3, §4, §5, §6

A further test relates to FAAH. Briefly: Gene expression custom microarray, human skin keratinocytes (Example 2): FAAH. In kind it is cell-based. The following applies: 10 uM, 24 hr. As to the method:
as §1, §2, §3, §4, §5, §6

Another test relates to MAGL. Briefly: Gene expression custom microarray, human skin keratinocytes (Example 2): MAGL. In kind it is cell-based. The conditions noted are these: 10 uM, 24 hr. The procedure: as §1, §2, §3, §4, §5, §6
The subject of another test is NFKB1. Briefly: Gene expression custom microarray, human skin keratinocytes (Example 2): NFKB1. The format is cell-based. The following applies: 10 uM, 24 hr. The procedure:
as §1, §2, §3, §4, §5, §6

In a further test the test system is PPARG. Description: Gene expression custom microarray, human skin keratinocytes (Example 2): PPARG. The conditions noted are these: 10 uM, 24 hr. In kind it is cell-based. As to the method: as §1, §2, §3, §4, §5, §6
A further test relates to TRPM8. Briefly: Gene expression custom microarray, human skin keratinocytes (Example 2): TRPM8. The format is cell-based. The following applies: 10 uM, 24 hr. As to the method: as §1, §2, §3, §4, §5, §6
Test [2] concerns TRPV1. Briefly: Gene expression custom microarray, human skin keratinocytes (Example 2): TRPV1. The following applies: 10 uM, 24 hr. In kind it is cell-based. The procedure: as §1, §2, §3, §4, §5, §6

On to `CCCCCCCCCCCCCCCC(=O)NCCO` [N-palmitoylethanolamide], for which the “TRPV1↑ gene expression, fold increase or decrease vs untreated cells” value in the test on TRPV1 [1] is −3.2 fold.
`C=C(C)[C@@H]1CCC(C)=C[C@H]1c1c(O)cc(CCCCC)cc1O` [CBD, cannabidiol, reference compound]: the “IL1A↓ gene expression, fold increase or decrease vs untreated cells” value in the test on IL1A is −1.8 fold. Also, in the test on PTGS1, the “PTGS1↓ gene expression, fold increase or decrease vs untreated cells” value came out at 2.3 fold. Besides, in the test on TRPA1, the “TRPA1↑ gene expression, fold increase or decrease vs untreated cells” value is listed as −1.7 fold. The “CNR2↑ gene expression, fold increase or decrease vs untreated cells” value in the test with CNR2 is on record as 0 fold. Also, the “CNR1↑ gene expression, fold increase or decrease vs untreated cells” value in the test on CNR1 is recorded as 2.6 fold. For the same compound, in the test on FAAH, the “FAAH↓ gene expression, fold increase or decrease vs untreated cells” value was −3.1 fold. The “MAGL↓ gene expression, fold increase or decrease vs untreated cells” value in the test on MAGL is given as −2.3 fold. Besides, the “NFKB1↓ gene expression, fold increase or decrease vs untreated cells” value with NFKB1 is −1.3 fold. In the test on PPARG, the “PPARG↑ gene expression, fold increase or decrease vs untreated cells” value was −4.7 fold. In the test on TRPM8, the “TRPM8↑ gene expression, fold increase or decrease vs untreated cells” value is 2.5 fold. Also, the “TRPV1↑ gene expression, fold increase or decrease vs untreated cells” value in the test on TRPV1 [2] came to 2.2 fold.
